This passage reports Kd and EC50 results from ChEMBL document CHEMBL1153218, “Non-peptide entry inhibitors of HIV-1 that target the gp41 coiled coil pocket” (Bioorg Med Chem Lett, 2010).

The nature of test [1]: Binding affinity to HIV1 envelope gp41 by NMR study. Also on record: species or system Human immunodeficiency virus 1.
The nature of test [2]: Inhibition of HIV1 envelope gp41-mediated fusion of CHO cells expressing HIV1 envelope with calcein-AM labeled SupT1 cells by fluorescence assay. It counts as cell-based, Human immunodeficiency virus 1.

Some results are limits rather than exact numbers.

What is called Kd is the constant that tells how readily two partners part at equilibrium. The low end stands for higher affinity, the high end for lower affinity. As to `O=C(O)c1ccccc1C(=O)N(Cc1cccc(Oc2ccccc2)c1)Cc1ccccn1`, in test [1], the Kd was greater than 5000 µM.

By EC50 is commonly meant the concentration at which the effect is half-maximal. On to `O=C(O)c1cc(C(=O)O)cc(C(=O)N(Cc2cccc(Oc3ccccc3)c2)[C@H]2CCCc3ccccc32)c1`, for which the EC50 in test [2] was 41 µM.

Take `O=C(O)c1ccccc1C(=O)N(Cc1cccc(Oc2ccc(Cl)cc2)c1)[C@H]1CCCc2ccccc21`: the EC50 in test [2] was 3 µM.

In the case of `O=C(O)c1ccccc1C(=O)N(Cc1cccc(Oc2ccccc2)c1)CC12CC3CC(CC(C3)C1)C2`, the EC50 in test [2] was 7 µM.

Consider `O=C(O)c1cc(C(=O)O)c(C(=O)N(Cc2cccc(OC3CCOCC3)c2)[C@H]2CCCc3ccccc32)cc1C(=O)O`, for which, in test [2], the EC50 was greater than 250 µM.

Take `O=C(O)c1cc(C(=O)O)c(C(=O)N(Cc2ccc(-c3ccccc3Cl)cc2)[C@H]2CCCc3ccccc32)cc1C(=O)O`: the EC50 in test [2] is 9 µM.

As for `O=C(O)c1cc(C(=O)O)c(C(=O)N(Cc2ccc(-c3cc(Cl)cc(Cl)c3)cc2)[C@H]2CCCc3ccccc32)cc1C(=O)O`, the EC50 in test [2] was 4 µM.

Regarding `COc1ccc(-c2ccc(CN(C(=O)c3cc(C(=O)O)c(C(=O)O)cc3C(=O)O)[C@H]3CCCc4ccccc43)cc2)cc1`, in test [2], the EC50 is 14 µM. The molecule also yielded a Kd in test [1] of 789 µM.

For `O=C(O)c1cc(C(=O)O)c(C(=O)N(Cc2ccc3c(c2)Cc2ccccc2-3)[C@H]2CCCc3ccccc32)cc1C(=O)O`, the EC50 in test [2] was 26 µM.

For `O=C(O)c1ccc(C(=O)N(Cc2cccc(Oc3ccccc3)c2)[C@H]2CCCc3ccccc32)cc1C(=O)O`, the EC50 in test [2] was 34 µM.

Consider `O=C(O)c1ccccc1C(=O)N(Cc1ccc(-c2ccccc2)cc1)[C@H]1CCCc2ccccc21`, for which, in test [2], the EC50 was 16 µM.

In the case of `CC(=O)N[C@H](CCCCN)C(=O)N[C@H](CCCCN)C(=O)NCC(=O)N[C@H](C)C(=O)N[C@@H]1CSSC[C@H](C(=O)N[C@H](C)C(=O)N[C@H](C)C(N)=O)NC(=O)[C@@H](CC(C)C)NC(=O)[C@@H](Cc2c[nH]c3ccccc23)NC(=O)[C@@H](C)NC(=O)[C@@H](Cc2c[nH]c3ccccc23)NC(=O)[C@@H](CCC(=O)O)NC(=O)[C@@H](Cc2c[nH]c3ccccc23)NC(=O)CNC(=O)[C@@H](CC(C)C)NC(=O)[C@@H](CC(C)C)NC(=O)[C@@H](CCC(=O)O)NC1=O`, the EC50 in test [2] is 19 µM.

`O=C(O)c1cc(C(=O)O)c(C(=O)N(Cc2cccc(Oc3ccccc3)c2)[C@H]2CCCc3ccccc32)cc1C(=O)O` [A-317491]: in test [2], the EC50 was 13 µM.
